# Reference: the supplement of paper PMC10307832
# Experiments:
# Test in all cases: relative viability (nuclei count vs DMSO), 5 days (fraction); higher = more cells survive
# [1] = test system: 201T
# How it was run: (§1)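 Lung cancer cell lines, seeded in 1536-well plates, were treated the following day by pin tool with a single drug or with five library-drug doses (not always all listed) in √10 steps on top of a fixed anchor-drug dose. Cells were fixed and nuclei stained in one step after 5 days, and nuclei were counted. Relative viability is the nuclei count for treated wells divided by that for vehicle wells, reported as medians of duplicate plates.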
# [2] = test system: A-427
# How it was run: as §1
# [3] = test system: COR-L23
# How it was run: as §1
# [4] = test system: H3255
# How it was run: as §1
# [5] = test system: HCC-44
# How it was run: as §1
# [6] = test system: LCLC-103H
# How it was run: as §1
# [7] = test system: LCLC-97TM1
# How it was run: as §1
# [8] = test system: LK-2
# How it was run: as §1
# [9] = test system: LU99A
# How it was run: as §1
# [10] = test system: NCI-H1563
# How it was run: as §1
# [11] = test system: NCI-H1650
# How it was run: as §1
# [12] = test system: NCI-H1944
# How it was run: as §1
# [13] = test system: NCI-H2347
# How it was run: as §1
# [14] = test system: NCI-H23
# How it was run: as §1
# [15] = test system: NCI-H460
# How it was run: as §1
# [16] = test system: NCI-H650
# How it was run: as §1
# [17] = test system: NCI-H727
# How it was run: as §1
# [18] = test system: NCI-H838
# How it was run: as §1
# [19] = test system: PC-14
# How it was run: as §1
# [20] = test system: PC-3 [JPC-3]
# How it was run: as §1
# [21] = test system: SW 1573
# How it was run: as §1
smiles,measurement,setting,value
C=C1C(=O)O[C@@H](CCCCCCCC)[C@@H]1C(=O)O [C-75] + C[C@@H](Oc1cc(-c2cnn(C3CCNCC3)c2)cnc1N)c1c(Cl)ccc(F)c1Cl [Crizotinib] (partner 1 µM),relative viability,[1]; first compound 0.08 µM,1.05
same,relative viability,[1]; first compound 0.253 µM,1.05
same,relative viability,[1]; first compound 0.8 µM,1.01
same,relative viability,[1]; first compound 2.53 µM,0.966
same,relative viability,[1]; first compound 8 µM,1.05
same,relative viability,[2]; first compound 0.08 µM,0.929
same,relative viability,[2]; first compound 0.253 µM,1.11
same,relative viability,[2]; first compound 0.8 µM,0.883
same,relative viability,[2]; first compound 2.53 µM,0.69
same,relative viability,[2]; first compound 8 µM,0.898
same,relative viability,[3]; first compound 0.08 µM,0.669
same,relative viability,[3]; first compound 0.253 µM,0.613
same,relative viability,[3]; first compound 0.8 µM,0.57
same,relative viability,[3]; first compound 2.53 µM,0.703
same,relative viability,[3]; first compound 8 µM,0.642
same,relative viability,[4]; first compound 0.08 µM,0.909
same,relative viability,[4]; first compound 0.253 µM,0.932
same,relative viability,[4]; first compound 0.8 µM,0.875
same,relative viability,[4]; first compound 2.53 µM,0.841
same,relative viability,[4]; first compound 8 µM,0.843
same,relative viability,[5]; first compound 0.08 µM,0.787
same,relative viability,[5]; first compound 0.253 µM,0.815
same,relative viability,[5]; first compound 0.8 µM,0.795
same,relative viability,[5]; first compound 2.53 µM,0.659
same,relative viability,[5]; first compound 8 µM,0.719
same,relative viability,[6]; first compound 0.08 µM,1.08
same,relative viability,[6]; first compound 0.253 µM,1.03
same,relative viability,[6]; first compound 0.8 µM,1.05
same,relative viability,[6]; first compound 2.53 µM,0.899
same,relative viability,[6]; first compound 8 µM,0.978
same,relative viability,[7]; first compound 0.08 µM,0.274
same,relative viability,[7]; first compound 0.253 µM,0.461
same,relative viability,[7]; first compound 0.8 µM,0.328
same,relative viability,[7]; first compound 2.53 µM,0.253
same,relative viability,[7]; first compound 8 µM,0.29
same,relative viability,[8]; first compound 0.08 µM,0.239
same,relative viability,[8]; first compound 0.253 µM,0.208
same,relative viability,[8]; first compound 0.8 µM,0.231
same,relative viability,[8]; first compound 2.53 µM,0.239
same,relative viability,[8]; first compound 8 µM,0.246
same,relative viability,[9]; first compound 0.08 µM,0.538
same,relative viability,[9]; first compound 0.253 µM,0.616
same,relative viability,[9]; first compound 0.8 µM,0.49
same,relative viability,[9]; first compound 2.53 µM,0.395
same,relative viability,[9]; first compound 8 µM,0.398
same,relative viability,[10]; first compound 0.08 µM,0.801
same,relative viability,[10]; first compound 0.253 µM,0.909
same,relative viability,[10]; first compound 0.8 µM,0.865
same,relative viability,[10]; first compound 2.53 µM,0.826
same,relative viability,[10]; first compound 8 µM,0.931
same,relative viability,[11]; first compound 0.08 µM,0.961
same,relative viability,[11]; first compound 0.253 µM,1.1
same,relative viability,[11]; first compound 0.8 µM,0.972
same,relative viability,[11]; first compound 2.53 µM,1.12
same,relative viability,[11]; first compound 8 µM,1.21
same,relative viability,[12]; first compound 0.08 µM,1.06
same,relative viability,[12]; first compound 0.253 µM,0.998
same,relative viability,[12]; first compound 0.8 µM,1.05
same,relative viability,[12]; first compound 8 µM,1.03
same,relative viability,[13]; first compound 0.08 µM,0.735
same,relative viability,[13]; first compound 0.253 µM,0.752
same,relative viability,[13]; first compound 0.8 µM,0.63
same,relative viability,[13]; first compound 2.53 µM,0.711
same,relative viability,[13]; first compound 8 µM,0.648
same,relative viability,[14]; first compound 0.08 µM,0.509
same,relative viability,[14]; first compound 0.253 µM,0.579
same,relative viability,[14]; first compound 0.8 µM,0.522
same,relative viability,[14]; first compound 2.53 µM,0.507
same,relative viability,[14]; first compound 8 µM,0.534
same,relative viability,[15]; first compound 0.08 µM,0.88
same,relative viability,[15]; first compound 0.253 µM,1.07
same,relative viability,[15]; first compound 0.8 µM,0.696
same,relative viability,[15]; first compound 8 µM,0.696
same,relative viability,[16]; first compound 0.08 µM,0.679
same,relative viability,[16]; first compound 0.253 µM,0.72
same,relative viability,[16]; first compound 0.8 µM,0.668
same,relative viability,[16]; first compound 2.53 µM,0.597
same,relative viability,[16]; first compound 8 µM,0.729
same,relative viability,[17]; first compound 0.08 µM,0.825
same,relative viability,[17]; first compound 0.253 µM,1.2
same,relative viability,[17]; first compound 0.8 µM,0.772
same,relative viability,[17]; first compound 2.53 µM,0.57
same,relative viability,[17]; first compound 8 µM,1.11
same,relative viability,[18]; first compound 0.08 µM,0.786
same,relative viability,[18]; first compound 0.253 µM,0.561
same,relative viability,[18]; first compound 0.8 µM,0.807
same,relative viability,[18]; first compound 2.53 µM,0.792
same,relative viability,[18]; first compound 8 µM,0.789
same,relative viability,[19]; first compound 0.08 µM,0.836
same,relative viability,[19]; first compound 0.253 µM,0.905
same,relative viability,[19]; first compound 0.8 µM,0.893
same,relative viability,[19]; first compound 2.53 µM,0.741
same,relative viability,[19]; first compound 8 µM,0.998
same,relative viability,[20]; first compound 0.08 µM,1.01
same,relative viability,[20]; first compound 0.253 µM,0.99
same,relative viability,[20]; first compound 0.8 µM,0.98
same,relative viability,[20]; first compound 2.53 µM,1.05
same,relative viability,[20]; first compound 8 µM,1.14
same,relative viability,[21]; first compound 0.08 µM,0.812
same,relative viability,[21]; first compound 0.253 µM,0.842
same,relative viability,[21]; first compound 0.8 µM,0.768
same,relative viability,[21]; first compound 2.53 µM,0.809
same,relative viability,[21]; first compound 8 µM,0.754
